# Measurements from PubChem BioAssay (NCI).
#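 Each compound was tested at five concentrations against cells in 96-well plates for 48 hours. The concentration for full growth arrest is given as TGI.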
# Tests used:
# Assay in all cases: DTP human tumour cell line panel, 48 h
# HCT-15 colon = test system: HCT-15 colon
# K-562 leukemia = test system: K-562 leukemia
# COLO 205 colon = test system: COLO 205 colon
# KM12 colon = test system: KM12 colon
# MALME-3M melanoma = test system: MALME-3M melanoma
# SK-MEL-5 melanoma = test system: SK-MEL-5 melanoma
# SK-MEL-2 melanoma = test system: SK-MEL-2 melanoma
# NCI-H226 lung = test system: NCI-H226 lung
# U251 CNS = test system: U251 CNS
# SR leukemia = test system: SR leukemia
# DLD-1 colon = test system: DLD-1 colon
# OVCAR-4 ovarian = test system: OVCAR-4 ovarian
# HCT-116 colon = test system: HCT-116 colon
# UO-31 renal = test system: UO-31 renal
# EKVX NSCLC = test system: EKVX NSCLC
# MOLT-4 leukemia = test system: MOLT-4 leukemia
# SNB-78 CNS = test system: SNB-78 CNS
# ACHN renal = test system: ACHN renal
# IGROV1 ovarian = test system: IGROV1 ovarian
# A498 renal = test system: A498 renal
# RPMI-8226 leukemia = test system: RPMI-8226 leukemia
# SW-620 colon = test system: SW-620 colon
# OVCAR-3 ovarian = test system: OVCAR-3 ovarian
# SF-295 CNS = test system: SF-295 CNS
# SF-268 CNS = test system: SF-268 CNS
# A549 NSCLC = test system: A549 NSCLC
# RXF 393 renal = test system: RXF 393 renal
# DMS 114 small cell lung = test system: DMS 114 small cell lung
# SF-539 CNS = test system: SF-539 CNS
# CCRF-CEM leukemia = test system: CCRF-CEM leukemia
# HOP-18 NSCLC = test system: HOP-18 NSCLC
# HT29 colon = test system: HT29 colon
# 786-0 renal = test system: 786-0 renal
# M19-MEL melanoma = test system: M19-MEL melanoma
# HOP-62 NSCLC = test system: HOP-62 NSCLC
# SNB-19 CNS = test system: SNB-19 CNS
# CAKI-1 renal = test system: CAKI-1 renal
# SK-MEL-28 melanoma = test system: SK-MEL-28 melanoma
# SN12C renal = test system: SN12C renal
# HCC-2998 colon = test system: HCC-2998 colon
# NCI-H23 lung = test system: NCI-H23 lung
# UACC-62 melanoma = test system: UACC-62 melanoma
# M14 melanoma = test system: M14 melanoma
# UACC-257 melanoma = test system: UACC-257 melanoma
# OVCAR-8 ovarian = test system: OVCAR-8 ovarian
# LOX IMVI melanoma = test system: LOX IMVI melanoma
# OVCAR-5 ovarian = test system: OVCAR-5 ovarian
# HOP-92 NSCLC = test system: HOP-92 NSCLC
# NCI-H460 lung = test system: NCI-H460 lung
# LXFL 529 NSCLC = test system: LXFL 529 NSCLC
# SK-OV-3 ovarian = test system: SK-OV-3 ovarian
# NCI-H522 lung = test system: NCI-H522 lung
# HL-60(TB) leukemia = test system: HL-60(TB) leukemia
# DU-145 prostate = test system: DU-145 prostate
# T-47D breast = test system: T-47D breast
# KM20L2 colon = test system: KM20L2 colon
# MCF7 breast = test system: MCF7 breast
# HS 578T breast = test system: HS 578T breast
# DMS 273 small cell lung = test system: DMS 273 small cell lung
# SNB-75 CNS = test system: SNB-75 CNS
# BT-549 breast = test system: BT-549 breast
# MDA-MB-435 = test system: MDA-MB-435
# TK-10 renal = test system: TK-10 renal
# XF 498 CNS = test system: XF 498 CNS
smiles,measurement,setting,value
COc1cc(/C=N/N=C(\N)NO)cc(Cl)c1O,TGI,HCT-15 colon,> 100 µM
same,TGI,K-562 leukemia,> 100 µM
same,TGI,COLO 205 colon,> 100 µM
same,TGI,KM12 colon,> 100 µM
same,TGI,MALME-3M melanoma,> 100 µM
same,TGI,SK-MEL-5 melanoma,> 100 µM
same,TGI,SK-MEL-2 melanoma,> 100 µM
same,TGI,NCI-H226 lung,81.6 µM
same,TGI,U251 CNS,> 100 µM
same,TGI,SR leukemia,> 100 µM
same,TGI,DLD-1 colon,> 100 µM
same,TGI,OVCAR-4 ovarian,> 100 µM
same,TGI,HCT-116 colon,> 100 µM
same,TGI,UO-31 renal,> 100 µM
same,TGI,EKVX NSCLC,> 100 µM
same,TGI,MOLT-4 leukemia,> 100 µM
same,TGI,SNB-78 CNS,> 100 µM
same,TGI,ACHN renal,> 100 µM
same,TGI,IGROV1 ovarian,> 100 µM
same,TGI,A498 renal,> 100 µM
same,TGI,RPMI-8226 leukemia,> 100 µM
same,TGI,SW-620 colon,> 100 µM
same,TGI,OVCAR-3 ovarian,> 100 µM
same,TGI,SF-295 CNS,> 100 µM
same,TGI,SF-268 CNS,> 100 µM
same,TGI,A549 NSCLC,> 100 µM
same,TGI,RXF 393 renal,61.7 µM
same,TGI,DMS 114 small cell lung,> 100 µM
same,TGI,SF-539 CNS,> 100 µM
same,TGI,CCRF-CEM leukemia,> 100 µM
same,TGI,HOP-18 NSCLC,88.5 µM
same,TGI,HT29 colon,> 100 µM
same,TGI,786-0 renal,> 100 µM
same,TGI,M19-MEL melanoma,> 100 µM
same,TGI,HOP-62 NSCLC,> 100 µM
same,TGI,SNB-19 CNS,> 100 µM
same,TGI,CAKI-1 renal,> 100 µM
same,TGI,SK-MEL-28 melanoma,> 100 µM
same,TGI,SN12C renal,> 100 µM
same,TGI,HCC-2998 colon,> 100 µM
same,TGI,NCI-H23 lung,> 100 µM
same,TGI,UACC-62 melanoma,> 100 µM
same,TGI,M14 melanoma,> 100 µM
same,TGI,UACC-257 melanoma,> 100 µM
same,TGI,OVCAR-8 ovarian,> 100 µM
same,TGI,LOX IMVI melanoma,> 100 µM
same,TGI,OVCAR-5 ovarian,> 100 µM
same,TGI,HOP-92 NSCLC,> 100 µM
same,TGI,NCI-H460 lung,> 100 µM
same,TGI,LXFL 529 NSCLC,> 100 µM
same,TGI,SK-OV-3 ovarian,> 100 µM
same,TGI,NCI-H522 lung,> 100 µM
O=C(Nc1cccc(C(F)(F)F)c1)C(=O)C(C(=O)c1ccc2ccccc2c1)C1OC(=O)c2ccccc21 (stereo not given),TGI,HL-60(TB) leukemia,40.9 µM
same,TGI,DU-145 prostate,81.2 µM
same,TGI,HCT-15 colon,32.2 µM
same,TGI,K-562 leukemia,> 73.7 µM
same,TGI,COLO 205 colon,38.9 µM
same,TGI,KM12 colon,29 µM
same,TGI,MALME-3M melanoma,17 µM
same,TGI,SK-MEL-5 melanoma,24.4 µM
same,TGI,SK-MEL-2 melanoma,15.8 µM
same,TGI,NCI-H226 lung,11.5 µM
same,TGI,U251 CNS,17.4 µM
same,TGI,SR leukemia,16 µM
same,TGI,DLD-1 colon,23.4 µM
same,TGI,OVCAR-4 ovarian,> 42.7 µM
same,TGI,HCT-116 colon,21.2 µM
same,TGI,T-47D breast,84.8 µM
same,TGI,UO-31 renal,20.6 µM
same,TGI,EKVX NSCLC,27.5 µM
same,TGI,MOLT-4 leukemia,11.1 µM
same,TGI,SNB-78 CNS,26.6 µM
same,TGI,ACHN renal,73.5 µM
same,TGI,IGROV1 ovarian,71.6 µM
same,TGI,A498 renal,20.3 µM
same,TGI,RPMI-8226 leukemia,60.6 µM
same,TGI,SW-620 colon,37 µM
same,TGI,OVCAR-3 ovarian,55.6 µM
same,TGI,SF-295 CNS,23.4 µM
same,TGI,SF-268 CNS,49.1 µM
same,TGI,KM20L2 colon,33.5 µM
same,TGI,A549 NSCLC,78.3 µM
same,TGI,MCF7 breast,45.8 µM
same,TGI,RXF 393 renal,11.9 µM
same,TGI,HS 578T breast,45.2 µM
same,TGI,DMS 273 small cell lung,> 100 µM
same,TGI,DMS 114 small cell lung,17.1 µM
same,TGI,SNB-75 CNS,30.6 µM
same,TGI,SF-539 CNS,10.2 µM
same,TGI,CCRF-CEM leukemia,29.1 µM
same,TGI,HT29 colon,38.2 µM
same,TGI,786-0 renal,15.9 µM
same,TGI,M19-MEL melanoma,31.1 µM
same,TGI,HOP-62 NSCLC,36.8 µM
same,TGI,SNB-19 CNS,25.8 µM
same,TGI,CAKI-1 renal,> 100 µM
same,TGI,SK-MEL-28 melanoma,15.7 µM
same,TGI,BT-549 breast,93.9 µM
same,TGI,SN12C renal,36.9 µM
same,TGI,HCC-2998 colon,23.5 µM
same,TGI,NCI-H23 lung,17.7 µM
same,TGI,UACC-62 melanoma,19.1 µM
same,TGI,M14 melanoma,34.4 µM
same,TGI,UACC-257 melanoma,15.9 µM
same,TGI,OVCAR-8 ovarian,35.6 µM
same,TGI,LOX IMVI melanoma,20.7 µM
same,TGI,OVCAR-5 ovarian,31.5 µM
same,TGI,HOP-92 NSCLC,> 100 µM
same,TGI,NCI-H460 lung,36.3 µM
same,TGI,LXFL 529 NSCLC,20.8 µM
same,TGI,SK-OV-3 ovarian,> 100 µM
same,TGI,MDA-MB-435,> 100 µM
same,TGI,TK-10 renal,48 µM
same,TGI,NCI-H522 lung,25.6 µM
same,TGI,XF 498 CNS,12.3 µM
